# Target: T1, Recombinant human mPGES-1 (Homo sapiens, UniProt O14684)
# T1 construct: made in house; host or cells: CHO cells (crude microsomal fractions)
# T1 sequence (O14684 1-152): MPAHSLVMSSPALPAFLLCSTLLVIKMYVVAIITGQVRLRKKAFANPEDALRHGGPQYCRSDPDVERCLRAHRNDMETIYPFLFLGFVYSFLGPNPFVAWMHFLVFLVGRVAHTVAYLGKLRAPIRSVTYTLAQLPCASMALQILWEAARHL
# Assay: In-vitro screening of mPGES-1 inhibitors (inhibition of PGE2 formation from PGH2, HTRF detection)
# Format: biochemical
# Details: mPGES-1 enzyme; for inhibition at 1 µM: 1 μM test compound, read-out: Percentage inhibition at 1 μM; for inhibition at 1 µM / inhibition at 10 µM: crude microsomal fractions; for inhibition at 10 µM: 10 μM test compound, read-out: Percentage inhibition at 10 μM; for IC50: class symbols
# Outline: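 Crude CHO-expressed microsomes (40–60 μg/mL protein) preincubated 10 min with compound in 0.1 M potassium phosphate/2 mM EDTA containing 2.5 mM GSH, 0.5% DMSO final. PGH2 (15 μM) reacted 1 min, stopped with stannous chloride. PGE2 quantified by HTRF, IC50 from nonlinear regression of percent inhibition.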
SMILES,inhibition at 1 µM,inhibition at 10 µM,IC50
"O=C(NCc1ccc(Cl)c(-c2nn(-c3ccc(C(F)(F)F)cc3)c(=O)[nH]2)c1)c1ccno1 [Example-105, N-(4-Chloro-3-(5-oxo-1-(4-(trifluoromethyl)phenyl)-4,5-dihydro-H-1,2,4-triazol-3-yl)benzyl)isoxazole-5-carboxamide]",73.9%,96%,> 100 nM
"Cc1ccc(CNC(=O)C(F)(F)F)c(C)c1-c1nn(-c2ccc(C(F)(F)F)cc2)c(=O)[nH]1 [Example-106, N-(3-(1-(4-(trifluoromethyl)phenyl)-4,5-dihydro-5-oxo-1H-1,2,4-triazol-3-yl)-2,4-dimethylbenzyl)-2,2,2-trifluoroacetamide]",92%,96.8%,> 100 nM
"Cc1ccc(CNC(=O)[C@H]2CCCO2)c(C)c1-c1nn(-c2ccc(C(F)(F)F)cc2)c(=O)[nH]1 [Example-107, (R)—N-(2,4-Dimethyl-3-(5-oxo-1-(4-(trifluoromethyl)phenyl)-4,5-dihydro-1H-1,2,4-triazol-3-yl)benzyl)tetrahydrofuran-2-carboxamide]",56.1%,90.5%,–
"Cc1ccc(CNC(=O)C(C)(C)C)c(C)c1-c1nn(-c2ccc(C(F)(F)F)cc2)c(=O)[nH]1 [Example-108, N-(3-(1-(4-(Trifluoromethyl)phenyl)-4,5-dihydro-5-oxo-1H-1,2,4-triazol-3-yl)-2,4-dimethylbenzyl)pivalamide]",89.8%,99.7%,> 100 nM
"O=C(NCc1ccc(Cl)c(-c2nn(-c3ccc(C(F)(F)F)cc3)c(=O)[nH]2)c1)[C@@H]1CCCO1 [Example-109, (S)—N-(4-Chloro-3-(1-(4-(trifluoromethyl)phenyl)-4,5-dihydro-5-oxo-1H-1,2,4-triazol-3-yl)benzyl)-tetrahydro furan-2-carboxamide]",97.1%,97.2%,50 to 100 nM
"Cn1ccnc1C(=O)NCc1ccc(Cl)c(-c2nn(-c3ccc(C(F)(F)F)cc3)c(=O)[nH]2)c1 [Example-110, N-(4-Chloro-3-(1-(4-(trifluoromethyl)phenyl)-4,5-dihydro-5-oxo-1H-1,2,4-triazol-3-yl)benzyl)-1-methyl-1H-imidazole-2-carboxamide]",47.2%,95.1%,–
"CC1(C)CCC(n2nc(-c3cc(CNC(=O)C(F)(F)F)ccc3Cl)[nH]c2=O)CC1 [Example-117, N-(4-chloro-3-(4,5-dihydro-1-(4,4-dimethylcyclohexyl)-5-oxo-1H-1,2,4-triazol-3-yl)benzyl)-2,2,2-trifluoroacetamide]",67.9%,95%,–
"CC1(C)CCC(n2nc(-c3cc(CNC(=O)C(C)(C)C)ccc3Cl)[nH]c2=O)CC1 [Example-118, N-(4-Chloro-3-(4,5-dihydro-1-(4,4-dimethylcyclohexyl)-5-oxo-1H-1,2,4-triazol-3-yl)benzyl)pivalamide]",76.2%,87.8%,> 100 nM
"CC(C)(C)n1nc(-c2cc(CNC(=O)C(F)(F)F)ccc2Cl)[nH]c1=O [Example-120, N-(3-(1-tert-butyl-4,5-dihydro-5-oxo-1H-1,2,4-triazol-3-yl)-4-chlorobenzyl)-2,2,2-trifluoroacetamide]",11.4%,46%,–
"CC(C)(C)C(=O)NCc1ccc(Cl)c(-c2nn(C(C)(C)C)c(=O)[nH]2)c1 [Example-121, N-(3-(1-tert-Butyl-4,5-dihydro-5-oxo-1H-1,2,4-triazol-3-yl)-4-chlorobenzyl)pivalamide]",16.3%,72.5%,–
"CC1(C)CCC(n2nc(-c3cc(CNC(=O)C(F)(F)F)c(F)cc3Cl)[nH]c2=O)CC1 [Example-124, N-(4-chloro-2-fluoro-5-(4,5-dihydro-1-(4,4-dimethylcyclohexyl)-5-oxo-1H-1,2,4-triazol-3-yl)benzyl)-2,2,2-trifluoroacetamide]",28%,89%,–

# The next lines start with the values.
inhibition at 1 µM,inhibition at 10 µM,IC50,SMILES
87.2%,96.2%,< 50 nM,"CC(C)(C)C#Cc1ccc(-c2nn(-c3c(Cl)ccc(CNC(=O)C(C)(C)C)c3F)c(=O)[nH]2)cc1 [Example-111, N-(4-Chloro-2-fluoro-3-(4,5-dihydro-3-(4-(3,3-dimethylbut-1-ynyl)phenyl)-5-oxo-1,2,4-triazol-1-yl)benzyl)pivalamide]"
99.5%,99.8%,< 50 nM,"CC(C)(C)C(=O)NCc1ccc(Cl)c(-n2nc(-c3ccc(C#CC4CC4)cc3)[nH]c2=O)c1F [Example-112, N-(4-Chloro-3-(3-(4-(2-cyclopropylethynyl)phenyl)-4,5-dihydro-5-oxo-1,2,4-triazol-1-yl)-2-fluorobenzyl)pivalamide]"
99.3%,99.1%,< 50 nM,"O=C(NCc1cc(-c2nn(-c3ccc(C(F)(F)F)cc3)c(=O)[nH]2)c(Cl)cc1F)C(F)(F)F [Example-113, N-(4-chloro-2-fluoro-5-(1-(4-(trifluoromethyl)phenyl)-4,5-dihydro-5-oxo-1H-1,2,4-triazol-3-yl)benzyl)-2,2,2-trifluoroacetamide]"
99.1%,98.4%,< 50 nM,"CC(C)(C)C(=O)NCc1cc(-c2nn(-c3ccc(C(F)(F)F)cc3)c(=O)[nH]2)c(Cl)cc1F [Example-114, N-(4-Chloro-2-fluoro-5-(1-(4-(trifluoromethyl)phenyl)-4,5-dihydro-S-oxo-1H-1,2,4-triazol-3-yl)benzyl)pivalamide]"
96.5%,98.2%,< 50 nM,"CC(C)(CO)C(=O)NCc1ccc(Cl)c(-c2nn(-c3ccc(C(F)(F)F)cc3)c(=O)[nH]2)c1 [Example-115, N-(4-Chloro-3-(1-(4-(trifluoromethyl)phenyl)-4,5-dihydro-5-oxo-1H-1,2,4-triazol-3-yl)benzyl)-3-hydroxy-2,2-dimethylpropanamide]"
98%,95.5%,< 50 nM,"O=C(NCc1ccc(Cl)c(-c2nn(-c3ccc(Cl)c(F)c3)c(=O)[nH]2)c1)C(F)(F)F [Example-116, N-(4-chloro-3-(1-(4-chloro-3-fluorophenyl)-4,5-dihydro-5-oxo-1H-1,2,4-triazol-3-yl)benzyl)-2,2,2-trifluoroacetamide]"
88.7%,94.3%,< 50 nM,"O=C(NCc1cc(-c2nn(-c3ccc(C(F)(F)F)cc3)c(=O)[nH]2)c(Cl)cc1F)[C@H]1CCCO1 [Example-119, (R)—N-(4-chloro-2-fluoro-5-(5-oxo-1-(4-(trifluoromethyl)phenyl)-4,5-dihydro-1H-1,2,4-triazol-3-yl)benzyl)tetrahydrofuran-2-carboxamide]"
92.2%,93.5%,< 50 nM,"COCC(C)(C)C(=O)NCc1ccc(Cl)c(-c2nn(-c3ccc(C(F)(F)F)cc3)c(=O)[nH]2)c1 [Example-122, N-(4-Chloro-3-(1-(4-(trifluoromethyl)phenyl)-4,5-dihydro-5-oxo-1H-1,2,4-triazol-3-yl)benzyl)-3-methoxy-2,2-dimethylpropanamide]"
93.8%,100%,< 50 nM,"CC(C)(C)C(=O)NCc1ccc(Cl)c(-c2nn(-c3ccc(Cl)c(F)c3)c(=O)[nH]2)c1 [Example-123, N-(4-Chloro-3-(1-(4-chloro-3-fluorophenyl)-4,5-dihydro-5-oxo-1H-1,2,4-triazol-3-yl)benzyl)pivalamide]"

# Reference: US10821100B2, “Triazolone compounds as mPGES-1 inhibitors” (Glenmark Pharmaceuticals S.A., priority 2012, dated 2020)
